The results in this text go back to US4204069A, “Reductive alkylation” (Merck & Co., Inc., priority 1978, dated 1980).

The structures appear in SMILES notation.

Test [1] concerns the target T1, β-1 adrenergic receptors (Cavia porcellus, UniProt H0W3H1).
T1 construct: conventionally isolated tissue preparations (guinea pig atrial and tracheal strips); from tissue; host or cells: guinea pig atrial strips
Briefly: Guinea pig atrial strips, atrial rate (chronotropic response), β-1 agonist activity. It is filed as cell-based. On the procedure: (§1) The pharmaceutical activity of the present compounds was determined in vitro using conventionally isolated tissue preparations (guinea pig atrial and tracheal strips). […] Both chronotropic (rate) and inotropic (force) responses were thereby assessed. […] The observed effect on tracheal muscle relaxation is equated with and considered to be an indication of bronchodilator activity. The β-1 and β-2 adrenergic receptor designations are those of Lands et al., Nature, 214, page 597 (1967).

For test [2], the target named is T1, β-1 adrenergic receptors. The test is described as follows: Guinea pig atrial strips, atrial force (inotropic response), β-1 agonist activity. Type of test: cell-based. The conditions noted are these: Atrial force (β-1). How it is done:
as §1

For test [3], the target named is T2, β-2 adrenergic receptors (Cavia porcellus, UniProt Q8K4Z4).
T2 construct: conventionally isolated tissue preparations (guinea pig atrial and tracheal strips); from tissue; host or cells: guinea pig tracheal strips
Briefly: Guinea pig tracheal strips, tracheal muscle relaxation, β-2 agonist activity (bronchodilator activity). It is filed as cell-based. How it is done: as §1

The nature of test [4]: Blood pressure of a rat after intravenous injection. It is filed as in vivo. The conditions noted are these: injected intravenously.

T1 sequence (H0W3H1 1-470): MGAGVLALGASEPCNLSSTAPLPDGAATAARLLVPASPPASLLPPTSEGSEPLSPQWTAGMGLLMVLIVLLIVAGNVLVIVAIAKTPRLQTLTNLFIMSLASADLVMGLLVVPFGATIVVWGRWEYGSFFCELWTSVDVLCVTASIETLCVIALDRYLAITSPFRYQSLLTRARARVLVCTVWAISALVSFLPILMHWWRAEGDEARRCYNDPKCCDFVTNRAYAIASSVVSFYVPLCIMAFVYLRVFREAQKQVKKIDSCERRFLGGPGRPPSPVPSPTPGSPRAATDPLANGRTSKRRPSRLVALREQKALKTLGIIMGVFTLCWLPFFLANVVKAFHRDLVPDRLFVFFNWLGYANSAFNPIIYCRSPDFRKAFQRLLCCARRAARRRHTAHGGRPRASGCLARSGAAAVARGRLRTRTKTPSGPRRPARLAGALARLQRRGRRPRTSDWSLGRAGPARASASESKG
T2 sequence (Q8K4Z4 whole entry): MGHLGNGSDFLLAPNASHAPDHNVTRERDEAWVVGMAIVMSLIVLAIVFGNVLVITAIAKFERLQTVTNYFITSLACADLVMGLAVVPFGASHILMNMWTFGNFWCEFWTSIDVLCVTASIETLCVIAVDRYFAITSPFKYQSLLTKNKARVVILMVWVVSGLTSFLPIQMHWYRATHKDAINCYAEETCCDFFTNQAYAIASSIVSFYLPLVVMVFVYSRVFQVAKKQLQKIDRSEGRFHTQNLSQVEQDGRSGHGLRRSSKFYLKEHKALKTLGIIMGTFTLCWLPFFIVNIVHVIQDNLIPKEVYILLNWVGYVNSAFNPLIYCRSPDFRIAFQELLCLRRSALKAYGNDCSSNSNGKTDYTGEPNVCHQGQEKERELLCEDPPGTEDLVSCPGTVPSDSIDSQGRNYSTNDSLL

A word on the Emax: it is the size of the effect at its maximum, as opposed to the concentration needed. `CC(C)NCC(O)c1ccc2nc[nH]c2c1` (racemic) [R, S-BENZISO, R,S-1-(5-benzimidazolyl)-2-isopropylaminoethanol]: the relative activity in test [1] (Atrial rate (β-1), [ED50 (R,S-ISO)/ED50 (R,S-BENZISO)] × 100) amounted to 0.355; in test [2] ([ED50 (R,S-ISO)/ED50 (R,S-BENZISO)] × 100), 0.355; in test [3] (Tracheal relaxation (β-2), [ED50 (R,S-ISO)/ED50 (R,S-BENZISO)] × 100), 4.79. In addition, the maximum response (Emax) is 50 ± 9% in test [1] (Atrial rate (β-1), maximum response relative to R,S-ISO × 100, mean ± S.E.M.); 33 ± 12% in test [2] (maximum response relative to R,S-ISO × 100, mean ± S.E.M.); 58 ± 7% in test [3] (Tracheal relaxation (β-2), maximum response relative to R,S-ISO × 100, mean ± S.E.M.). Besides, the EC50 was 6.17 µM in test [1] (Atrial rate (β-1), mean ± S.E.M., n=5, administered as the dihydrochloride, read-out: pD2 (negative logarithm of ED50) (converted)); 3.8 µM in test [2] (mean ± S.E.M., n=3, administered as the dihydrochloride, read-out: pD2 (negative logarithm of ED50) (converted)); 1.66 µM in test [3] (Tracheal relaxation (β-2), mean ± S.E.M., n=4, administered as the dihydrochloride, read-out: pD2 (negative logarithm of ED50) (converted)). Also, the “cardiac stimulation (β-1 force and rate)” value in test [1] (in words, from Table I) is “cardiac stimulant”. Further, in test [3] (in words, from Table I), the “bronchodilator activity (β-2)” value is given as “good bronchodilator activity”. Moreover, the “bronchodilator selectivity versus isoproterenol” value in test [3] (in words, from the β-2/β-1 ratio) is on record as “more bronchodilator selective than is isoproterenol”. Moreover, the “Ratio, β-2/β-1” value in test [3] (relative activity (tracheal relaxation)/relative activity (atrial rate)) came out at 13.5. In addition, the “effect on blood pressure” value in test [4] is listed as “decrease blood pressure”.
